Converted amounts (≈) assume the structure as drawn.
Experiments:
C. albicans CA98001 = experiment: Anti-Candida in vitro assay (Alamar Blue), C. albicans CA98001; format: cell-based; conditions: for MIC: Candida albicans, CA98001, 24 h
Description: (§1) Test fungal strains were obtained from the American Type Culture Collection (ATCC) or were clinical isolates from the Laboratory of Parasitology and Medical Mycology, Centre Hospitalier Universitaire (CHU) of Nantes. The strains were maintained on Sabouraud agar slants and were subcultured 24 h before used. The activity of the target compounds 8a–g and 11a–m was determined by the method previously described. Briefly, molecules were diluted in RPMI 1640 medium supplemented with 0.165 M morpholinopropanesulphonic acid (Sigma-Aldrich, Saint-Quentin Fallavier, France), 2% glucose, and antibiotics. Candida suspensions were prepared in RPMI 1640 medium (Sigma-Aldrich, Saint-Quentin Fallavier, France) adjusted to give a final concentration of 10^3 cells/mL, and a 96-well microplate (Nunc, D. Dutscher, Brumath, France) was seeded with 100 µL. Each concentration of molecules (100 µL) to be tested was added (in triplicate) and plates were incubated at 37 °C for 24 h. The cellular viability was evaluated on the Fluorolite 1000 (Dynatech, France) with an excitation at 550 nm and an emission at 590 nm after a 4 h incubation with 10 µL of Alamar Blue®. […] MIC was expressed as the mean of the triplicate values. KTC and FLC were used as standards.

[1] = system: ATCC2091 Candida albicans strain; experiment: Anti-Candida in vitro assay, ATCC2091; format: cell-based; conditions: Candida albicans ATCC2091, mean of triplicate; read-out: MIC (IC80) ATCC2091
Description: as §1

[2] = system: CA98002 (Candida albicans); experiment: Anti-Candida in vitro assay, CA98002; format: cell-based; conditions: Candida albicans CA98002, mean of triplicate; read-out: MIC (IC80) CA98002
Description: as §1

[3] = system: CA98005 (Candida albicans); experiment: Anti-Candida in vitro assay, CA98005; format: cell-based; conditions: Candida albicans CA98005, mean of triplicate; read-out: MIC (IC80) CA98005
Description: as §1

[4] = system: ATCC6258 Candida krusei strain; experiment: Anti-Candida in vitro assay, ATCC6258; format: cell-based; conditions: Pichia kudriavzevii; Candida krusei ATCC6258, mean of triplicate; read-out: MIC (IC80) ATCC6258
Description: as §1

CK98002 (Candida krusei) = experiment: Anti-Candida in vitro assay, CK98002; format: cell-based; conditions: Pichia kudriavzevii; Candida krusei CK98002, mean of triplicate; read-out: MIC (IC80) CK98002
Description: as §1

CK98003 (Candida krusei) = experiment: Anti-Candida in vitro assay, CK98003; format: cell-based; conditions: Pichia kudriavzevii; Candida krusei CK98003, mean of triplicate; read-out: MIC (IC80) CK98003
Description: as §1

[5] = system: CL98001 (Candida lusitaniae); experiment: Anti-Candida in vitro assay, CL98001; format: cell-based; conditions: Clavispora lusitaniae; Candida lusitaniae CL98001, mean of triplicate; read-out: MIC (IC80) CL98001
Description: as §1

[6] = system: ATCC90018 Candida parapsilosis strain; experiment: Anti-Candida in vitro assay, ATCC90018; format: cell-based; conditions: Lodderomyces parapsilosis; Candida parapsilosis ATCC90018, mean of triplicate; read-out: MIC (IC80) ATCC90018
Description: as §1

MRC5 toxicity assay = format: cell-based, human; conditions: human, MRC-5 human fetal lung fibroblast cells, MRC-5 cells, 96-h incubation, mean of triplicate; read-out: Cytotoxicity IC50 on MRC-5 cells
Description: The cytotoxicity of compounds was studied with human fibroblast (MRC5). Cells were grown in RPMI 1640 medium (Sigma-Aldrich, Saint-Quentin Fallavier, France) supplemented with 10% fetal bovin serum (Sigma–Aldrich). Drugs were tested at three concentrations (100, 10, and 1 µM) in triplicate. After a 96-h incubation time, cytotoxicity was measured on the Fluorolite 1000 (Dynatech, Guyancourt, France) after a 4-h incubation time with Uptiblue® (Interchim, Montluçon, France). Inhibitory concentration 50 is a mean of triplicate values. A toxicity index was determined as follow: IC50 against MRC5/Geometric mean of the MICs against Candida spp..

[7] = MIC = IC80, 24 h at 37 °C, mean of triplicate

| SMILES | MIC (C. albicans CA98001; [7]) | MIC [1] | MIC [2] | MIC [3] | MIC [4] | MIC (CK98002 (Candida krusei)) | MIC (CK98003 (Candida krusei)) | MIC [5] | MIC [6] | melting point | MIC (= IC80) C. albicans CA98001 (C. albicans CA98001; [7]) | IC50 at 96 h (MRC5 toxicity assay) | Times more active than FLC against C. albicans CA98001 (C. albicans CA98001; ratio of MIC values versus FLC) |
| --- | --- | --- | --- | --- | --- | --- | --- | --- | --- | --- | --- | --- | --- |
| OC(Cn1ccnc1)(Cn1ccc2ccccc21)c1ccc(F)cc1 (stereo not shown) [Compound 8a, 2-(4-Fluorophenyl)-1-(1H-imidazol-1-yl)-3-(1H-indol-1-yl)propan-2-ol] | 0.03 µg/mL (≈ 0.0895 µM) | 0.131 µg/mL (≈ 0.391 µM) | 0.205 µg/mL (≈ 0.611 µM) | 0.148 µg/mL (≈ 0.441 µM) | > 33.5 µg/mL | 12.8 µg/mL (≈ 38 µM) | 28.6 µg/mL (≈ 85.3 µM) | 0.231 µg/mL (≈ 0.689 µM) | 2.11 µg/mL (≈ 6.29 µM) | 166 to 167 °C | – | 50 µM | – |
| OC(Cn1ccnc1)(Cn1ccc2ccccc21)c1ccc(Cl)cc1 (stereo not shown) [Compound 8b, 2-(4-Chlorophenyl)-1-(1H-imidazol-1-yl)-3-(1H-indol-1-yl)propan-2-ol] | 0.02 µg/mL (≈ 0.0568 µM) | 0.215 µg/mL (≈ 0.611 µM) | 0.165 µg/mL (≈ 0.469 µM) | 0.106 µg/mL (≈ 0.301 µM) | > 35.2 µg/mL | 2.72 µg/mL (≈ 7.74 µM) | > 35.2 µg/mL | 0.222 µg/mL (≈ 0.631 µM) | 1.3 µg/mL (≈ 3.69 µM) | 201 to 202 °C | – | 37 µM | – |
| OC(Cn1ccnc1)(Cn1ccc2ccccc21)c1ccc(Br)cc1 (stereo not shown) [Compound 8c, 2-(4-Bromophenyl)-1-(1H-imidazol-1-yl)-3-(1H-indol-1-yl)propan-2-ol] | 0.02 µg/mL (≈ 0.0505 µM) | 0.357 µg/mL (≈ 0.901 µM) | 0.25 µg/mL (≈ 0.631 µM) | 0.21 µg/mL (≈ 0.53 µM) | > 39.6 µg/mL | 5.08 µg/mL (≈ 12.8 µM) | 36.6 µg/mL (≈ 92.3 µM) | 0.25 µg/mL (≈ 0.631 µM) | 1.84 µg/mL (≈ 4.64 µM) | 134 to 135 °C | – | 31 µM | – |
| OC(Cn1ccnc1)(Cn1ccc2ccccc21)c1ccc(F)cc1F (stereo not shown) [Compound 8d, 2-(2,4-Difluorophenyl)-1-(1H-imidazol-1-yl)-3-(1H-indol-1-yl)propan-2-ol] | 0.00035 µg/mL (≈ 0.00099 µM) | 0.726 µg/mL (≈ 2.05 µM) | 0.609 µg/mL (≈ 1.72 µM) | 0.439 µg/mL (≈ 1.24 µM) | 3.86 µg/mL (≈ 10.9 µM) | 5.69 µg/mL (≈ 16.1 µM) | 5.21 µg/mL (≈ 14.7 µM) | 0.068 µg/mL (≈ 0.192 µM) | 0.614 µg/mL (≈ 1.74 µM) | 166 to 168 °C | – | 34 µM | 57 |
| OC(Cn1ccnc1)(Cn1ccc2ccccc21)c1ccc(Cl)cc1Cl (stereo not shown) [Compound 8e, 2-(2,4-Dichlorophenyl)-1-(1H-imidazol-1-yl)-3-(1H-indol-1-yl)propan-2-ol] | 0.062 µg/mL (≈ 0.161 µM) | 0.19 µg/mL (≈ 0.492 µM) | 0.251 µg/mL (≈ 0.65 µM) | 0.274 µg/mL (≈ 0.709 µM) | 1.2 µg/mL (≈ 3.11 µM) | 1.8 µg/mL (≈ 4.66 µM) | 0.28 µg/mL (≈ 0.725 µM) | 0.116 µg/mL (≈ 0.3 µM) | 0.24 µg/mL (≈ 0.621 µM) | 212 to 213 °C | – | 31 µM | – |
| OC(Cn1cncn1)(Cn1ccc2ccccc21)c1ccc(C(F)(F)F)cc1 (stereo not shown) [Compound 8f, 1-(1H-Indol-1-yl)-3-(1,2,4-1H-triazol-1-yl)-2-(4-trifluoromethyl-phenyl)propan-2-ol] | 0.009 µg/mL (≈ 0.0233 µM) | 0.247 µg/mL (≈ 0.639 µM) | 0.233 µg/mL (≈ 0.603 µM) | 0.749 µg/mL (≈ 1.94 µM) | 19.1 µg/mL (≈ 49.4 µM) | 10.6 µg/mL (≈ 27.3 µM) | 3.07 µg/mL (≈ 7.94 µM) | 0.199 µg/mL (≈ 0.515 µM) | 2 µg/mL (≈ 5.18 µM) | 165 to 168 °C | – | 76 µM | – |

Continued, in another order:

| MIC (C. albicans CA98001; [7]) | MIC [1] | MIC [2] | MIC [3] | MIC [4] | MIC (CK98002 (Candida krusei)) | MIC (CK98003 (Candida krusei)) | MIC [5] | MIC [6] | melting point | MIC (= IC80) C. albicans CA98001 (C. albicans CA98001; [7]) | SMILES | IC50 at 96 h (MRC5 toxicity assay) | Times more active than FLC against C. albicans CA98001 (C. albicans CA98001; ratio of MIC values versus FLC) |
| --- | --- | --- | --- | --- | --- | --- | --- | --- | --- | --- | --- | --- | --- |
| 0.21 µg/mL (≈ 0.624 µM) | 0.437 µg/mL (≈ 1.3 µM) | 0.404 µg/mL (≈ 1.2 µM) | 0.437 µg/mL (≈ 1.3 µM) | 19.2 µg/mL (≈ 57.2 µM) | 21.4 µg/mL (≈ 63.7 µM) | 18.7 µg/mL (≈ 55.5 µM) | 0.259 µg/mL (≈ 0.77 µM) | 2.52 µg/mL (≈ 7.5 µM) | 190 to 191 °C | 0.21 µg/mL (≈ 0.624 µM) | OC(Cn1cncn1)(Cn1ccc2ccccc21)c1ccc(F)cc1 (stereo not shown) [Compound 11a, 2-(4-Fluorophenyl)-3-(1H-indol-1-yl)-1-(1H-1,2,4-triazol-1-yl)propan-2-ol] | > 100 µM | – |
| 0.024 µg/mL (≈ 0.068 µM) | 0.258 µg/mL (≈ 0.731 µM) | 0.261 µg/mL (≈ 0.74 µM) | 0.222 µg/mL (≈ 0.629 µM) | 2.43 µg/mL (≈ 6.9 µM) | 12.7 µg/mL (≈ 35.9 µM) | 2.43 µg/mL (≈ 6.9 µM) | 0.208 µg/mL (≈ 0.59 µM) | 2.05 µg/mL (≈ 5.8 µM) | 188 to 189 °C | – | OC(Cn1cncn1)(Cn1ccc2ccccc21)c1ccc(Cl)cc1 (stereo not shown) [Compound 11b, 2-(4-Chlorophenyl)-3-(1H-indol-1-yl)-1-(1H-1,2,4-triazol-1-yl)propan-2-ol] | > 100 µM | – |
| 0.027 µg/mL (≈ 0.068 µM) | 0.477 µg/mL (≈ 1.2 µM) | 0.338 µg/mL (≈ 0.851 µM) | 0.286 µg/mL (≈ 0.72 µM) | 1.51 µg/mL (≈ 3.8 µM) | 2.46 µg/mL (≈ 6.2 µM) | 2.5 µg/mL (≈ 6.3 µM) | 0.215 µg/mL (≈ 0.541 µM) | 2.03 µg/mL (≈ 5.1 µM) | 186 to 187 °C | – | OC(Cn1cncn1)(Cn1ccc2ccccc21)c1ccc(Br)cc1 (stereo not shown) [Compound 11c, 2-(4-Bromophenyl)-3-(1H-indol-1-yl)-1-(1H-1,2,4-triazol-1-yl)propan-2-ol] | 38 µM | – |
| – | 0.136 µg/mL (≈ 0.369 µM) | 0.033 µg/mL (≈ 0.0896 µM) | 0.265 µg/mL (≈ 0.719 µM) | 1.4 µg/mL (≈ 3.8 µM) | 0.81 µg/mL (≈ 2.2 µM) | 0.7 µg/mL (≈ 1.9 µM) | 0.023 µg/mL (≈ 0.0624 µM) | 0.309 µg/mL (≈ 0.839 µM) | 112 to 113 °C | – | Cc1cn(CC(O)(Cn2cncn2)c2ccc(F)cc2F)c2ccccc12 (stereo not shown) [Compound 11h, 2-(2,4-Difluorophenyl)-3-(3-methyl-1H-indol-1-yl)-1-(1H-1,2,4-triazol-1-yl)propan-2-ol] | 105 µM | – |
| > 100 µg/mL | – | – | – | – | – | – | – | – | 210 to 211 °C | – | OC(Cn1ccnn1)(Cn1ccc2ccccc21)c1ccc(Cl)cc1Cl (stereo not shown) [Compound 11l, 2-(2,4-Dichlorophenyl)-3-(1H-indol-1-yl)-1-(1H-1,2,3-triazol-1-yl)propan-2-ol] | – | – |
| > 100 µg/mL | – | – | – | – | – | – | – | – | 159 to 161 °C | – | OC(Cn1nccn1)(Cn1ccc2ccccc21)c1ccc(Cl)cc1Cl (stereo not shown) [Compound 11m, 2-(2,4-Dichlorophenyl)-3-(1H-indol-1-yl)-1-(2H-1,2,3-triazol-2-yl)propan-2-ol] | – | – |

Reference: paper PMC7464559, “Synthesis, Optimization, Antifungal Activity, Selectivity, and CYP51 Binding of New 2-Aryl-3-azolyl-1-indolyl-propan-2-ols” (Pharmaceuticals, 2020)
